This note sets out measurements from publication PMC12224939, “Trypstatin as a Novel TMPRSS2 Inhibitor with Broad‐Spectrum Efficacy against Corona and Influenza Viruses” (Advanced Science, 2025).

In general, IC50 refers to the concentration needed to halve the response being measured.

Where a name gives a salt, the structure may show the parent alone. Read-outs that look alike come from different tables or passages of the source.

The test system of experiment [1] is lentiviral pseudoparticles harboring the SARS-CoV-1 spike. Description: microbe, parasite or virus in culture. The note with it: Severe acute respiratory syndrome coronavirus, Caco-2, read-out: anti-viral IC50 (±SEM), SARS-CoV-1 pp.
For experiment [2], the system named is lentiviral pseudoparticles harboring the MERS-CoV spike. Description: microbe, parasite or virus in culture. Conditions: Middle East respiratory syndrome-related coronavirus.

For `CN(C)C(=O)COC(=O)Cc1ccc(OC(=O)c2ccc(NC(=N)N)cc2)cc1` [Camostat mesylate], the IC50 was 71.1 ± 8 nM in experiment [1]; 50 nM in experiment [2] (Caco-2, 48 h, read-out: IC50, MERS-CoV spike pseudoparticles); 49.9 ± 19 nM in experiment [2] (Caco-2, read-out: anti-viral IC50 (±SEM), MERS-CoV pp).
